Measurements reported in patent publication EP0879051B9, “RATE-CONTROLLED TRANSDERMAL ADMINISTRATION OF RISPERIDONE” (JANSSEN PHARMACEUTICA N.V., priority 1995, dated 1996).

Assay: In vitro transdermal permeation of risperidone, two-compartment diffusion cell
Type: in vitro ADME, hairless rats
Protocol: Experimental Part : In vitro study of the transdermal permeation of risperidone.
An in vitro model using a vertical, two-compartment diffusion cell assembly mounted with freshly excised full thickness abdominal skin of hairless rats (Iffa credo) was used in this study. […] The receptor solution in all experiments consisted of Hanks Balanced Salt Solution (Gibco BRL) with sodium azide). The skin permeation profile was followed for up to 50 h by sampling the receptor solution and assaying the drug concentration by measuring the radioactivity (Ready Safe, Beckmann-Wallac 1410LKB). The ratio of the cumulated quantities detected in the receptor compartment to the skin area (ng/cm^2) were plotted in function of the time and the flux of risperidone through the skin in the presence of various solvents and skin permeation enhancers was deduced from the linear part of the plotted results.

[1] = Experiment 2: donor borate buffer pH 10, 0.1 M (900 µl/ml) + ethanol (95%; 100 µl/ml) + risperidone (100 µg/ml)
[2] = Experiment 4: donor propylene glycol + lauric acid (LA) 5%, risperidone 10 mg/ml
[3] = Experiment 4: donor propylene glycol + oleic acid (OA) 5%, risperidone 10 mg/ml
[4] = donor propylene glycol, 0% enhancer, risperidone 10 mg/ml

For Cc1nc2n(c(=O)c1CCN1CCC(c3noc4cc(F)ccc34)CC1)CCCC2 [risperidone, 3-[2-[4-(6-fluoro-1,2-benzisoxazol-3-yl)-1-piperidinyl]ethyl]-6,7,8,9-tetrahydro-2-methyl-4H-pyrido[1,2-a]pyrimidin-4-one], the flux (Experiment 1: donor borate buffer pH 10, 0.1 M + risperidone at 40mg/ml) was 0.181 µg/cm^2.h, the flux [1] was 0.869 µg/cm^2.h and the latency period [1] was 13.9 h. The “flux (1%)” value (Experiment 3: donor propylene glycol + eucalyptus oil 1%, risperidone 10 mg/ml) was 4.54 µg/cm^2.h, the “latency period (5%)” value (Experiment 3: donor propylene glycol + eucalyptus oil 5%, risperidone 10 mg/ml) was 6.2 h and the “flux (5%)” value (Experiment 3: donor propylene glycol + eucalyptus oil 5%, risperidone 10 mg/ml, very high flux probably due to skin damage) was 126.74 µg/cm^2.h. The “latency period (LA %)” value (Experiment 3: donor propylene glycol + eucalyptus oil (printed 'LA %'), risperidone 10 mg/ml) was 15.2 h, the “flux (5% LA)” value [2] was 15.39 µg/cm^2.h and the “latency period (5% LA)” value [2] was 4.3 h. The “flux (5% OA)” value [3] was 18.9 µg/cm^2.h, the “latency period (5% OA)” value [3] was 17 h and the “flux (0%)” value [4] was 3.89 µg/cm^2.h. For the same molecule, the “latency period (0%)” value [4] was 14.2 h.
